In assay [1] the test system is Propionibacterium acnes NCTC 737. The assay can be described thus: anti-anaerobic activity, MIC (procedures of Example 13). Particulars: Cutibacterium acnes, NCTC737, procedures of Example 13 (there mg/L). The class given is cell-based.
For another assay, the system named is B. fragilis WS-1. Briefly: anti-anaerobic activity, MIC/MBC in 96 well microtitre plates, strain E. Type of assay: cell-based. The settings on record: Bacteroides fragilis, strain E; for MIC: WS1, 48 h, 48 hours at 37° C., anaerobic chamber, 10^5 cells/ml, read-out: MIC (Minimum Inhibitory Concentration); for MBC: WS1, 99.9% reduction in viable count after 48 hours, read-out: MBC (Minimum Bactericidal Concentration).

For the next assay, the system named is B. fragilis NCTC 9343. The assay can be described thus: anti-anaerobic activity, MIC/MBC in 96 well microtitre plates, strain B. The class given is cell-based, Bacteroides fragilis. The settings on record: Bacteroides fragilis, strain B; for MIC: NCTC9343, 48 h, 48 hours at 37° C., anaerobic chamber, 10^5 cells/ml, read-out: MIC (Minimum Inhibitory Concentration); for MBC: NCTC9343, 99.9% reduction in viable count after 48 hours, read-out: MBC (Minimum Bactericidal Concentration).

For assay [2], the system named is Peptococcus magnus ATCC 29328. Briefly: anti-anaerobic activity, MIC (procedures of Example 13). Type of assay: cell-based. The settings on record: Finegoldia magna, ATCC29328; Peptococcus magnus ATCC 29328; procedures of Example 13 (there mg/L); read-out: MIC.
The subject of assay [3] is Fusobacterium necrophorum ATCC 11295. The description is as above. The class given is cell-based. The settings on record: ATCC11295, procedures of Example 13 (there mg/L).
Assay [4] deals with Peptococcus prevotti ATCC 9321. The assay is described as above. Type of assay: cell-based. Particulars: Peptococcus prevotti ATCC 9321; procedures of Example 13 (there mg/L); read-out: MIC.
Assay [5] relates to Clostridium perfringens NCTC 8237. The assay can be described thus: microbe, parasite or virus in culture. The settings on record: NCTC8237. Type of assay: cell-based.
For assay [6], the system named is Propionibacterium acnes NCTC 7337. The assay can be described thus: anti-anaerobic activity, MIC (procedures of Example 13). Particulars: Cutibacterium acnes, NCTC7337, procedures of Example 13 (there mg/L). Type of assay: cell-based.
Assay [7] deals with Campylobacter fetus ATCC 29428. The assay is described as above. The class given is cell-based. The settings on record: ATCC29428, procedures of Example 13 (there mg/L).
In assay [8] the test system is Clostridium perfringens NCTC 523. The assay can be described thus: microbe, parasite or virus in culture. Type of assay: cell-based. Particulars: NCTC523.
The test system of another assay is B. fragilis NCTC 10581. Briefly: anti-anaerobic activity, MIC/MBC in 96 well microtitre plates, strain A. Type of assay: cell-based, Bacteroides fragilis. Particulars: Bacteroides fragilis, NCTC10581, 48 h, strain A; for MBC: 99.9% reduction in viable count after 48 hours, read-out: MBC (Minimum Bactericidal Concentration); for MIC: 48 hours at 37° C., anaerobic chamber, 10^5 cells/ml, read-out: MIC (Minimum Inhibitory Concentration).

The subject of assay [9] is B. fragilis MZ-R ATCC 11295. The assay can be described thus: anti-anaerobic activity, MIC/MBC in 96 well microtitre plates, strain D. The settings on record: Bacteroides fragilis, ATCC11295, 48 h; for MBC: 99.9% reduction in viable count after 48 hours, read-out: MBC (Minimum Bactericidal Concentration); for MIC: 48 hours at 37° C., anaerobic chamber, 10^5 cells/ml, read-out: MIC (Minimum Inhibitory Concentration). Type of assay: cell-based, Bacteroides fragilis. The protocol: The screening panel utilized in the Example consisted of 5 strains of Bacteroides fragilis. All assays were carried out in 96 well microtitre plates. If an isolate was obtained from either a culture collection or clinical source, the isolate was immediately innoculated into Wilkens-Chalgren broth (Oxoid) and incubated at 37° C. in an anaerobic chamber in an atmosphere of 85% nitrogen, 10% carbon dioxide, and 5% hydrogen for 48 hours. At the end of this time, the viable count was about […] broth. A 1 ml aliquot of each culture was placed in an ampoule and quick frozen in acetone-dry ice mixture and stored in liquid nitrogen. When an inoculum was utilized in an assay, one of the ampoules was thawed and diluted with fresh broth to yield a suspension having a count of 5×10^5 organisms/ml. A 100 μl aliquot of the suspension was inoculated into each well of the microtitre plate. A 2 mg sample of the test compound wa dissolved in 0.2 ml of a suitable solvent such as dimethylsulfoxide, polyethylene glycol 200 or methanol. The solution was then diluted with 4.8 ml of water to yield a solution having a concentration of 400 mg/L. Doubling dilutions of this stock were prepared to give a range of concentrations from 1.6-200 mg/L. 100 μl of each concentration were then placed in the wells of the microtitre plate containing the inoculum, to produce a final concentration range of 0.8-100 mg/l. Metronidazole was employed as a positive control and a solvent/water mixture was employed as a negative control. After addition of the test solution the final inoculum level was 10^5 cells/ml. The plates were incubated for 48 hours at 37° C. in the anaerobic chamber. The Minimum Inhibitory Concentration (MIC) was read visually. The MIC is defined as the lowest concentration at which there is no detectable growth. The Minimum Bactericidal Concentration (MBC) was determined by taking a 50 μl aliquot from each well and placing it in fresh medium. […] The strains of Bacteroides fragilis utilized in the above procedure are identified by letter in accordance with the following legend: |D B. fragilis MZ-R ATCC 11295

Assay [10] has as its system Peptostreptococcus anaerobicus ATCC 27337. Briefly: anti-anaerobic activity, MIC (procedures of Example 13). The class given is cell-based. The settings on record: ATCC27337; Peptostreptococcus anaerobicus ATCC 27337; procedures of Example 13 (there mg/L); read-out: MIC.
Another assay concerns B. fragilis NCTC 9344. The assay can be described thus: anti-anaerobic activity, MIC/MBC in 96 well microtitre plates, strain C. Type of assay: cell-based, Bacteroides fragilis. Particulars: Bacteroides fragilis, NCTC9344, 48 h, strain C; for MBC: 99.9% reduction in viable count after 48 hours, read-out: MBC (Minimum Bactericidal Concentration); for MIC: 48 hours at 37° C., anaerobic chamber, 10^5 cells/ml, read-out: MIC (Minimum Inhibitory Concentration).

In brackets after ≈: the same amount, converted by molar mass. Where a name gives a salt, the structure may show the parent alone.

With `O=C(c1ccc(Cl)cc1Cl)C(Cl)(Cn1ccnc1)c1ccccc1` (stereo not shown) [Example 4, 2-Chloro-1-(2,4-dichlorophenyl)-3-(imidazol-1-yl)-2-phenylpropan-1-one], the MIC (in assay [1]; with B. fragilis WS-1; with B. fragilis NCTC 9343; in assay [2]; in assay [3]; in [4]) was 0.8 µg/mL (≈ 2.11 µM) in each case. The MIC (in assay [5]; in [6]; in assay [7]; in assay [8]; in the assay with B. fragilis NCTC 10581; in assay [9]) was 0.8 µg/mL (≈ 2.11 µM) in each case. In addition, the MIC (in assay [10]; in the assay on B. fragilis NCTC 9344) was 0.8 µg/mL (≈ 2.11 µM) in each case. In addition, the MBC turned out to be 6.2 µg/mL (≈ 16.3 µM) in the assay on B. fragilis WS-1; 6.2 µg/mL (≈ 16.3 µM) with B. fragilis NCTC 9343; 6.2 µg/mL (≈ 16.3 µM) in the assay on B. fragilis NCTC 10581; 3.1 µg/mL (≈ 8.16 µM) in [9]; 12.5 µg/mL (≈ 32.9 µM) in the assay with B. fragilis NCTC 9344.

Consider `COC(=O)CCc1cn(CC(Cl)(C(=O)c2ccc(Cl)cc2Cl)c2ccccc2)cn1` (stereo not shown) [Example 5, 3-[1-[2-Chloro-3-(2,4-dichlorophenyl)-3-oxo-2-phenylpropyl]-imidazol-4-yl]propanoic acid methyl ester], for which the MIC with B. fragilis WS-1 was found to be 3.1 µg/mL (≈ 6.66 µM); with B. fragilis NCTC 9343, 1.5 µg/mL (≈ 3.22 µM); with B. fragilis NCTC 10581, 1.5 µg/mL (≈ 3.22 µM); in assay [9], 0.8 µg/mL (≈ 1.72 µM); in the assay on B. fragilis NCTC 9344, 1.5 µg/mL (≈ 3.22 µM). In addition, the MBC in the assay with B. fragilis WS-1 is 3.1 µg/mL (≈ 6.66 µM); in the assay with B. fragilis NCTC 9343, 1.5 µg/mL (≈ 3.22 µM); with B. fragilis NCTC 10581, 1.5 µg/mL (≈ 3.22 µM); in [9] it was 0.8 µg/mL (≈ 1.72 µM); in the assay with B. fragilis NCTC 9344 it was 1.5 µg/mL (≈ 3.22 µM).

With `O=C(O)/C=C/c1cn(CC(Cl)(C(=O)c2ccc(Cl)cc2Cl)c2ccccc2)cn1` (stereo not shown) [Example 6, E-3-[1-[2-Chloro-3-(2,4-dichlorophenyl)-3-oxo-2-phenylpropyl]imidazol-1-yl]propenoic acid hydrochloride], the MIC in the assay with B. fragilis WS-1 worked out at 3.1 µg/mL; in the assay with B. fragilis NCTC 9343, 1.5 µg/mL; in the assay with B. fragilis NCTC 10581, 0.8 µg/mL; in [9], 0.8 µg/mL; with B. fragilis NCTC 9344, 0.8 µg/mL. Also, the MBC in the assay with B. fragilis WS-1 is 3.1 µg/mL; in the assay with B. fragilis NCTC 9343, 3.1 µg/mL; with B. fragilis NCTC 10581 it was 0.8 µg/mL; in [9], 0.8 µg/mL; with B. fragilis NCTC 9344, 0.8 µg/mL.

Take `N[C@@H](Cc1cn(CC(Cl)(C(=O)c2ccc(Cl)cc2Cl)c2ccccc2)cn1)C(=O)O` (stereo partly drawn) [Example 8, 1-[2-Chloro-3-(2,4-dichlorophenyl)-3-oxo-2-phenylpropyl]-L-histidine]: the MIC with B. fragilis WS-1 worked out at 3.1 µg/mL (≈ 6.64 µM); with B. fragilis NCTC 9343, 0.8 µg/mL (≈ 1.71 µM); in the assay on B. fragilis NCTC 10581, 0.8 µg/mL (≈ 1.71 µM); in assay [9], 0.8 µg/mL (≈ 1.71 µM); in the assay on B. fragilis NCTC 9344 it was 0.8 µg/mL (≈ 1.71 µM). For the same compound, the MBC amounted to 3.1 µg/mL (≈ 6.64 µM) with B. fragilis WS-1; 0.8 µg/mL (≈ 1.71 µM) with B. fragilis NCTC 9343; 0.8 µg/mL (≈ 1.71 µM) in the assay with B. fragilis NCTC 10581; 0.8 µg/mL (≈ 1.71 µM) in assay [9]; 0.8 µg/mL (≈ 1.71 µM) with B. fragilis NCTC 9344.

`C[C@H](NC(=O)[C@H](Cc1cn(CC(Cl)(C(=O)c2ccc(Cl)cc2Cl)c2ccccc2)cn1)NC(=O)OC(C)(C)C)C(=O)OC(C)(C)C` (stereo partly drawn) [Example 9, N-[1-[2-Chloro-3-(2,4-dichlorophenyl)-3-oxo-2-phenylpropyl]-N-[(1,1-dimethylethoxy)carbonyl]-L-histidyl]-L-alanine 1,1-dimethylethyl ester]: the MIC in the assay on B. fragilis WS-1 came out at 12.5 µg/mL (≈ 18 µM); with B. fragilis NCTC 9343 it was 3.1 µg/mL (≈ 4.47 µM); in the assay with B. fragilis NCTC 10581, 3.1 µg/mL (≈ 4.47 µM); in [9], 0.8 µg/mL (≈ 1.15 µM); with B. fragilis NCTC 9344 it was 6.2 µg/mL (≈ 8.93 µM). In addition, the MBC in the assay on B. fragilis WS-1 is 12.5 µg/mL (≈ 18 µM); with B. fragilis NCTC 9343 it was 3.1 µg/mL (≈ 4.47 µM); in the assay with B. fragilis NCTC 10581, 6.2 µg/mL (≈ 8.93 µM); in [9], 0.8 µg/mL (≈ 1.15 µM); in the assay with B. fragilis NCTC 9344, 6.2 µg/mL (≈ 8.93 µM).

For the compound `C[C@H](NC(=O)[C@@H](N)Cc1cn(CC(Cl)(C(=O)c2ccc(Cl)cc2Cl)c2ccccc2)cn1)C(=O)O` (stereo partly drawn) [Example 10, N-[1-[2-Chloro-3-(2,4-dichlorophenyl)-3-oxo-2-phenylpropyl]-L-histidyl]-L-alanine], the MIC in the assay on B. fragilis WS-1 was found to be 6.2 µg/mL (≈ 11.5 µM); in the assay on B. fragilis NCTC 9343 it was 3.1 µg/mL (≈ 5.76 µM); with B. fragilis NCTC 10581, 3.1 µg/mL (≈ 5.76 µM); in assay [9], 0.8 µg/mL (≈ 1.49 µM); in the assay on B. fragilis NCTC 9344, 3.1 µg/mL (≈ 5.76 µM). Also, the MBC was 6.2 µg/mL (≈ 11.5 µM) with B. fragilis WS-1; 3.1 µg/mL (≈ 5.76 µM) in the assay on B. fragilis NCTC 9343; 3.1 µg/mL (≈ 5.76 µM) in the assay on B. fragilis NCTC 10581; 0.8 µg/mL (≈ 1.49 µM) in assay [9]; 6.2 µg/mL (≈ 11.5 µM) in the assay on B. fragilis NCTC 9344.

On to `C[C@H](NC(=O)[C@@H](N)CCCCNC(=O)/C=C/c1cn(CC(Cl)(C(=O)c2ccc(Cl)cc2Cl)c2ccccc2)cn1)C(=O)O` (stereo partly drawn) [Example 12, N-[N^6-[E-3-[1-[2-Chloro-3-(2,4-dichlorophenyl)-3-oxo-2-phenylpropyl]imidazol-4-yl]propenoyl]-L-lysinyl]-L-alanine], for which the MIC in the assay on B. fragilis WS-1 amounted to 6.2 µg/mL (≈ 9.55 µM); in the assay on B. fragilis NCTC 9343 it was 1.5 µg/mL (≈ 2.31 µM); in the assay on B. fragilis NCTC 10581, 1.5 µg/mL (≈ 2.31 µM); in assay [9], 0.8 µg/mL (≈ 1.23 µM); in the assay on B. fragilis NCTC 9344, 3.1 µg/mL (≈ 4.78 µM). Besides, the MBC worked out at 6.2 µg/mL (≈ 9.55 µM) in the assay on B. fragilis WS-1; 1.5 µg/mL (≈ 2.31 µM) in the assay on B. fragilis NCTC 9343; 3.1 µg/mL (≈ 4.78 µM) with B. fragilis NCTC 10581; 0.8 µg/mL (≈ 1.23 µM) in assay [9]; 3.1 µg/mL (≈ 4.78 µM) in the assay on B. fragilis NCTC 9344.

(Values after patent US4761483A, “Chloro-substituted ketone imidazole derivatives” (G. D. Searle & Co., priority 1985, dated 1988).)
